Test results taken from PMC9687610, “Adenosine-Mimicking Derivatives of 3-Aminopyrazine-2-Carboxamide: Towards Inhibitors of Prolyl-tRNA Synthetase with Antimycobacterial Activity” (Biomolecules, 2022).
Values after ≈ are worked out from the molar mass of the structure shown. Where two headings read alike, the source gives them in different places.

Assays:
[1] = test system: Mycobacterium tuberculosis H37Ra ITM-M006710 (ATCC 9431); assay: Microplate Alamar Blue Assay (MABA), Mtb H37Ra; type: cell-based; settings: Mycobacterium tuberculosis, 120 h, pH 6.6, MABA, Middlebrook 7H9 broth pH 6.6, resazurin after 120 h; read-out: Mtb H37Ra MIC
[2] = test system: Mycobacterium smegmatis DSM 43465 (ATCC 607); assay: Microplate Alamar Blue Assay (MABA), M. smegmatis; type: cell-based; settings: Mycolicibacterium smegmatis, read-out: M. smegmatis MIC
[3] = test system: M. aurum DSM 43999 (ATCC 23366); assay: Microplate Alamar Blue Assay (MABA), M. aurum; type: cell-based; settings: Mycolicibacterium aurum, read-out: M. aurum MIC
[4] = test system: Staphylococcus aureus subsp. aureus CCM 4223 (ATCC 29213); assay: Antibacterial microdilution broth (EUCAST), SA; type: cell-based; settings: Staphylococcus aureus
[5] = test system: Staphylococcus aureus subsp. aureus methicillin-resistant (MRSA) CCM 4750 (ATCC 43300); assay: Antibacterial microdilution broth (EUCAST), MRSA; type: cell-based; settings: Staphylococcus aureus
[6] = test system: Staphylococcus epidermidis CCM 4418 (ATCC 12228); assay: Antibacterial microdilution broth (EUCAST), SE; type: cell-based
[7] = test system: Enterococcus faecalis CCM 4224 (ATCC 29212); assay: Antibacterial microdilution broth (EUCAST), EF; type: cell-based; settings: Enterococcus faecalis
[8] = test system: Escherichia coli CCM 3954 (ATCC 25922); assay: Antibacterial microdilution broth (EUCAST), EC; type: cell-based; settings: Escherichia coli
[9] = test system: Acinetobacter baumannii DSM 30007 (ATCC 19606); assay: Antibacterial microdilution broth (EUCAST), ACI; type: cell-based; settings: Acinetobacter baumannii
[10] = test system: Pseudomonas aeruginosa CCM 3955 (ATCC 27853); assay: Antibacterial microdilution broth (EUCAST), PA; type: cell-based; settings: Pseudomonas aeruginosa
[11] = test system: Candida albicans CCM 8320 (ATCC 24433); assay: Antifungal microdilution broth (EUCAST), CA; type: cell-based; settings: Candida albicans
[12] = test system: Candida krusei CCM 8271 (ATCC 6258); assay: Antifungal microdilution broth (EUCAST), CK; type: cell-based; settings: Pichia kudriavzevii
[13] = test system: Candida parapsilosis CCM 8260 (ATCC 22019); assay: Antifungal microdilution broth (EUCAST), CP; type: cell-based; settings: Lodderomyces parapsilosis
[14] = test system: Candida tropicalis CCM 8264 (ATCC 750); assay: Antifungal microdilution broth (EUCAST), CT; type: cell-based; settings: Candida tropicalis
[15] = test system: Aspergillus fumigatus ATCC 204305; assay: Antifungal microdilution broth (EUCAST), AF; type: cell-based; settings: Aspergillus fumigatus, ATCC204305
[16] = test system: Aspergillus flavus CCM 8363; assay: Antifungal microdilution broth (EUCAST), AFla; type: cell-based; settings: Aspergillus flavus, CCM8363
[17] = test system: Lichtheimia corymbifera CCM 8077; assay: Antifungal microdilution broth (EUCAST), LC; type: cell-based; settings: Lichtheimia corymbifera, CCM8077
[18] = test system: Trichophyton interdigitale CCM 8377 (ATCC 9533); assay: Antifungal microdilution broth (EUCAST), TI; type: cell-based; settings: Trichophyton interdigitale
[19] = test system: HepG2 human hepatocellular carcinoma cells; assay: In vitro HepG2 cytotoxicity (CellTiter 96); settings: for IC50: Homo sapiens, HepG2, 24 h, read-out: HepG2 IC50, 24 h incubation, * limit = highest evaluated concentration (precipitation in medium), ** over the 1000 µM limit
[20] = test system: Klebsiella pneumoniae CCM 4415 (ATCC 10031); assay: Antibacterial microdilution broth (EUCAST), KP; settings: for KP MIC: read after 24 h; for MIC: Klebsiella pneumoniae
[21] = read after 24 h, read-out: SA MIC
[22] = read after 24 h, read-out: MRSA MIC
[23] = read after 24 h, read-out: SE MIC
[24] = read after 24 h, read-out: EF MIC
[25] = read after 24 h, read-out: EC MIC
[26] = read after 24 h, read-out: ACI MIC
[27] = read after 24 h, read-out: PA MIC
[28] = read after 24 h, read-out: CA MIC
[29] = read after 24 h, read-out: CK MIC
[30] = read after 24 h, read-out: CP MIC
[31] = read after 24 h, read-out: CT MIC
[32] = read after 24 h, read-out: AF MIC
[33] = read after 24 h, read-out: AFla MIC
[34] = read after 24 h, read-out: LC MIC
[35] = internal quality control, 90% growth inhibition, 24 h, 530 nm, read-out: MIC, spectrophotometric detection*
[36] = internal quality control, no visible growth, 24 h, read-out: MIC, visual detection**
[37] = internal quality control, 90% growth inhibition, 48 h (moulds), 530 nm, read-out: MIC, spectrophotometric detection*
[38] = internal quality control, no visible growth, 48 h (moulds), read-out: MIC, visual detection**
[39] = internal quality control, 95% growth inhibition, 24 h, 530 nm, read-out: MIC, spectrophotometric detection
[40] = internal quality control, no visible growth, 24 h, read-out: MIC, visual detection
[41] = internal quality control, 50% growth inhibition, 24 h, 530 nm, read-out: MIC, spectrophotometric detection***
[42] = internal quality control, 50% growth inhibition, 48 h (moulds), 530 nm, read-out: MIC, spectrophotometric detection***

SMILES	MIC [1] [µg/mL]	MIC ([2]; MABA, resazurin after 48 h) [µg/mL]	MIC ([3]; MABA, resazurin after 72 h) [µg/mL]	MIC [4, 21] [µM]	MIC [5, 22] [µM]	MIC [6, 23] [µM]	MIC [7, 24] [µM]	MIC [8, 25] [µM]	MIC [9, 26] [µM]	MIC [10, 27] [µM]	MIC [11, 28] [µM]	MIC [12, 29] [µM]	MIC [13, 30] [µM]	MIC [14, 31] [µM]	MIC [15, 32] [µM]	MIC [16, 33] [µM]	MIC [17, 34] [µM]	MIC ([18]; 72 h, read-out: TI MIC) [µM]	IC50 [19] [µM]	KP MIC [20] [µM]	further results
NC(=O)c1nccnc1NC(=O)c1ccccc1 [Compound 1]	250 (≈ 1030 µM)	≥ 500	≥ 500	> 500	> 500	> 500	> 500	> 500	> 500	> 500	> 500	> 500	> 500	> 500	> 500	> 500	> 500	> 500	> 250	> 500	–
NC(=O)c1nccnc1NC(=O)c1ccccc1Cl [Compound 13]	≥ 500	≥ 500	≥ 500	> 500	> 500	> 500	> 500	> 500	> 500	> 500	> 500	> 500	> 500	> 500	> 500	> 500	> 500	> 500	> 250	> 500	–
NC(=O)c1nccnc1NC(=O)c1cccc(Cl)c1 [Compound 14]	≥ 125	–	–	> 125	> 125	> 125	> 125	> 125	> 125	> 125	> 125	> 125	> 125	> 125	> 125	> 125	> 125	> 125	> 25	> 125	MIC ([2]; 48 h): ≥ 125 µg/mL; MIC ([3]; 72 h): ≥ 125 µg/mL; solubility in the testing medium (in words) ([19]; HepG2 cell culture medium): low solubility
NC(=O)c1nccnc1NC(=O)C12CC3CC(CC(C3)C1)C2 [Compound 28]	31.2 (≈ 104 µM)	125 (≈ 416 µM)	125 (≈ 416 µM)	> 500	> 500	> 500	> 500	> 500	> 500	> 500	500	500	> 500	> 500	> 500	> 500	> 500	125	367	> 500	–
O=C(NC1Cc2ccccc2C1)c1nccnc1NC(=O)C1CCCCC1 [Compound 38, reference compound]	62.5 (≈ 171 µM)	≥ 500	≥ 500	–	–	–	–	–	–	–	–	–	–	–	–	–	–	–	19.6	–	–
C[C@@H]1[C@H](O)[C@@H](C)/C=C/C=C/C=C/C=C/C=C/C=C/C=C/[C@H](O[C@@H]2O[C@H](C)[C@@H](O)[C@H](N)[C@@H]2O)C[C@@H]2O[C@](O)(C[C@@H](O)C[C@@H](O)[C@H](O)CC[C@@H](O)C[C@@H](O)CC(=O)O[C@H]1C)C[C@H](O)[C@H]2C(=O)O [amphotericin B, reference compound]	–	–	–	–	–	–	–	–	–	–	–	–	–	–	–	–	–	–	–	–	MIC [11, 35]: 0.5 µg/mL; MIC [11, 36]: 0.5 µg/mL; MIC [12, 35]: 0.5 µg/mL; MIC [12, 36]: 0.5 µg/mL; MIC [13, 35]: 0.5 µg/mL; MIC [13, 36]: 0.5 µg/mL; MIC [14, 35]: 1 µg/mL; MIC [14, 36]: 1 µg/mL; MIC [15, 37]: 1 µg/mL; MIC [15, 38]: 1 µg/mL; MIC [16, 37]: 4 µg/mL; MIC [16, 38]: 4 µg/mL; MIC [17, 37]: 0.125 µg/mL; MIC [17, 38]: 0.125 µg/mL; MIC [18, 37]: 1 µg/mL; MIC [18, 38]: 1 µg/mL
CNC(C)C1CCC(N)C(OC2C(N)CC(N)C(OC3OCC(C)(O)C(NC)C3O)C2O)O1 (stereo not shown) [gentamicin, reference compound]	–	–	–	–	–	–	–	–	–	–	–	–	–	–	–	–	–	–	–	–	MIC [4, 39]: 1 µg/mL; MIC [4, 40]: 0.5 µg/mL; MIC [5, 39]: > 8 µg/mL; MIC [5, 40]: > 8 µg/mL; MIC [6, 39]: 0.125 µg/mL; MIC [6, 40]: 0.125 µg/mL; MIC [7, 39]: > 8 µg/mL; MIC [7, 40]: > 8 µg/mL; MIC [8, 39]: 1 µg/mL; MIC [8, 40]: 1 µg/mL; MIC [9, 39]: 8 µg/mL; MIC [9, 40]: 8 µg/mL; MIC [10, 39]: 0.5 µg/mL; MIC [10, 40]: 0.5 µg/mL; MIC ([20]; 24 h, read-out: MIC, visual detection): 0.5 µg/mL (≈ 1.05 µM); MIC ([20]; ATCC10031|CCM4415, 24 h, read-out: MIC, spectrophotometric detection): 0.5 µg/mL (≈ 1.05 µM)
C[C@@H](c1ncncc1F)[C@](O)(Cn1cncn1)c1ccc(F)cc1F [voriconazole, reference compound]	–	–	–	–	–	–	–	–	–	–	–	–	–	–	–	–	–	–	–	–	MIC [11, 41]: 0.03 µg/mL; MIC [11, 36]: > 16 µg/mL; MIC [12, 41]: 0.25 µg/mL; MIC [12, 36]: > 16 µg/mL; MIC [13, 41]: 0.03 µg/mL; MIC [13, 36]: > 16 µg/mL; MIC [14, 41]: 0.0625 µg/mL; MIC [14, 36]: > 16 µg/mL; MIC [15, 42]: 0.25 µg/mL; MIC [15, 38]: 1 µg/mL; MIC [16, 42]: 1 µg/mL; MIC [16, 38]: > 16 µg/mL; MIC [17, 42]: > 16 µg/mL; MIC [17, 38]: > 16 µg/mL; MIC [18, 42]: > 16 µg/mL; MIC [18, 38]: > 16 µg/mL
